Tests used:
[1] = system: DOHH2 DLBCL xenografts (CD20+, p53 wt); test: In vivo antitumor efficacy against DOHH2 DLBCL xenografts (Example 1); settings: s.c. DOHH-2 xenografts, female SCID beige mice; for TGI % (tumor growth inhibition compared to control): RG7388 30 mg/kg oral, obinutuzumab 10 mg/kg ip once weekly, GDC-0199 100 mg/kg oral, treatment days 13-29
Procedure: The in vivo antitumor efficacy of the CD20 specific antibody obinutuzumab in combination with bcl-2 inhibitor GDC-0199 and MDM2 inhibitor RG7388 was evaluated against DOHH2 DLBCL xenografts (CD20+, p53 wt). As used herein, obinutuzumab is used synonymously with RO5072759 and B-HH6-B-KV1 GE. As used herein, said bcl-2 inhibitor GDC-0199 is the following chemical compound: 4-(4-{[2-(4-chlorophenyl)-4,4-dimethylcyclohex-1-en-1-yl]methyl}piperazin-1-yl)-2-(1H-pyrrolo[2,3-b]pyridin-5-yloxy)-N-({4-[(tetrahydro-2H-pyran-4-ylmethyl)amino]-3-[(trifluoromethyl)sulfonyl]phenyl}sulfonyl)benzamide or a salt or a polymorphic form thereof. As used herein, said MDM2 inhibitor RG7388 is the following chemical compound 4-{[(2R,3S,4R,5S)-4-(4-Chloro-2-fluoro-phenyl)-3-(3-chloro-2-fluoro-phenyl)-4-cyano-5-(2,2-dimethyl-propyl)-pyrrolidine-2-carbonyl]-amino}-3-methoxy-benzoic acid or a salt or a polymorphic form thereof.
CD20 antibody obinutuzumab was provided as stock solution from Roche, Basel, Switzerland. Antibody buffer included histidine. Antibody solution was diluted appropriately in buffer from stock prior injections. MDM2(4) inhibitor was provided as SDP formulation from Roche, Basel, Switzerland and resuspended prior to use. Bcl-2 inhibitor GDC-0199 was provided by GNE, SSF, USA and formulated prior to use.
The original DOHH-2 human B cell NHL cell line (DLBCL) was established at the NCI and purchased from ATCC (Manassas, Va., USA). Expansion of tumor cells for the transplantation was done by the TAP CompacT CellBase Cell Culture Roboter according to the protocol. Tumor cell line was routinely cultured in RPMI 1640 medium, FCS 10% and L-Glutamin 2 mM at 37° C. in a water-saturated atmosphere at 5% CO2. Culture passage was performed with trypsin/EDTA 1× splitting twice/week and passage 2 used for transplantation.
Female SCID beige mice, age 6-7 weeks at arrival, maintained under specific-pathogen-free condition with daily cycles of 12 h light/12 h darkness according to committed guidelines. Experimental study protocol was reviewed and approved by local government. After arrival animals were maintained in animal facility for one week to get accustomed to new environment and for observation. Continuous health monitoring was carried out on regular basis. Diet food and autoclaved water were provided ad libitum.
Animals were controlled daily for clinical symptoms and detection of adverse effects. For monitoring throughout the experiment body weight of animals was documented.
Animal treatment started after randomisation when median tumor size was about 200 mm^3. CD20 antibody obinutuzumab was administered as single agent and in combination at 10 mg/kg ip once weekly on days 13, 21 and 27. The corresponding vehicle was administered on the same days. MDM2(4) inhibitor RG7388 oral treatment at 30 mg/kg was done as single agent and in combination on days 13-17, 20-24 and 27-29. Finally, bcl-2 inhibitor GDC-0199 was given orally at 100 mg/kg on days 13-29 as single agent and in combination.
DOHH-2 human Diffuse Large B-cell Lymphoma (DLBCL) cells (CD20+, p53 wt) were s.c. inoculated with Matrigel onto female SCID beige mice. Tumor bearing mice were randomized 13 days later to the indicated study groups and compound treatment initiated. Tumor bearing animals were treated with vehicle control, with the MDM2(4) inhibitor RO5503781 (RG7388) at 30 mg/kg, with the anti-CD20 antibody obinutuzumab at 10 mg/kg or with bcl-2 inhibitor GDC-0199 (100 mg/kg) as single agent. Furthermore one study group received the triple combination of MDM2 inhibitor RG7388, CD20 antibody obinutuzumab and bcl-2 inhibitor GDC-0199. […] A similar efficacy was noticed after treatment with the bcl-2 inhibitor GDC-0199 (60% TGI), whereas the best efficacy as single agent was achieved after treatment with the anti-CD20 antibody obinutuzumab reaching nearly tumor stasis (TGI 90%).

[2] = system: human Z138 mantle cell lymphoma cell line; test: Antitumor activity of combined treatment, Z138 mantle cell lymphoma xenograft (Example 2); assay type: in vivo, SCID beige mice; settings: for Tumor growth inhibition (TGI) on day 32: SCID beige mice, RO5072759 0.5 mg/kg i.p. q7d, GDC-0199 100 mg/kg p.o. daily, RG7388 100 then 80 mg/kg p.o. daily, day 32 after tumor cell inoculation; for Tumor-free animals on Day 125: number of animals out of 9-10 per group; for Median time to event (Days to reach TV of 1500 mm^3): time-to-event analysis until day 125; for Number of animals with reduced tumor growth or non-responder / Number of animals with tumor regrowth: until day 125
Procedure: Type II anti-CD20 antibody B-HH6-B-KV1 GE (=humanized B-Ly1, glycoengineered B-HH6-B-KV1, see WO 2005/044859 and WO 2007/031875) was provided as stock solution (c=9.4 mg/ml) from GlycArt, Schlieren, Switzerland, in histidine, trehalose and polysorbate 20 buffer. The antibody was diluted with PBS prior to in-vivo application. The Bcl-2 inhibitor GDC-0199 was obtained from Genentech Inc., CA, USA. MDM2(4) antagonist RG7388 (RO5503781) was provided by the Small Molecule Process Research and Development unit, Hoffmann-La Roche, Basel, Switzerland.
The human Z138 mantle cell lymphoma cell line was cultured in DMEM supplemented with 10% fetal bovine serum (PAA Laboratories, Austria) and 2 mM L-glutamine at 37° C. in a water-saturated atmosphere at 5% CO2. For in-vivo xenograft experiments the cells were co-injected with Matrigel.
Female SCID beige mice, age 4-5 weeks at arrival (purchased from Charles River, Sulzfeld, Germany), were maintained in the quarantine part of the animal facility for one week and afterwards under specific-pathogen-free condition with daily cycles of 12 h light/12 h darkness according to guidelines (GV-Solas; Felasa; TierschG). The experimental study protocol was reviewed and approved by Roche and the local government (Regierung von Oberbayern; registration no. 55.2-1-54-2531.2-26-09). Diet food (KLIBA NAFAG 3807) and water (filtered) were provided ad libitum.
Animals were monitored daily for clinical symptoms and detection of adverse effects. During the experiment the body weight of animals was checked two times a week and tumor volume was measured by caliper.
Animal treatment started at the day of randomization 18 days after tumor cell inoculation. Humanized type II anti-CD20 antibody RO5072759 B-HH6-B-KV1 GE (obinutuzumab) was administered as single agent i.p. q7d once weekly (day 18, 25, 32) for 3 weeks at a dosage of 0.5 mg/kg. The bcl-2 inhibitor GDC-0199 was given p.o. once daily (from day 18 to day 36) over 19 days at a dosage of 100 mg/kg. The MDM2 antagonist RG7388 (RO5503781) was given p.o. once daily over 5 days at a dosage of 100 mg/kg (active compound) from day 18 to day 22 and was administered over 12 days at a dosage of 80 mg/kg (active compound) from day 25 to day 36. There was no treatment on day 23 and 24. In the combination groups, RO5072759 B-HH6-B-KV1 GE, MDM2(4) and GDC-0199 were administered at the same dosages and on the same days. The corresponding vehicle was administered on the same days.
To elucidate the long term effects of the various treatments a time-to-event analysis was performed until day 125 after tumor cell inoculation.

CC1(C)CCC(CN2CCN(c3ccc(C(=O)NS(=O)(=O)c4ccc(NCC5CCOCC5)c([N+](=O)[O-])c4)c(Oc4cnc5[nH]ccc5c4)c3)CC2)=C(c2ccc(Cl)cc2)C1 [GDC-0199, 4-(4-{[2-(4-chlorophenyl)-4,4-dimethylcyclohex-1-en-1-yl]methyl}piperazin-1-yl)-N-({3-nitro-4-[(tetrahydro-2H-pyran-4-ylmethyl)amino]phenyl}sulfonyl)-2-(1H-pyrrolo[2,3-b]pyridin-5-yloxy)benzamide, reference compound]
npTCR [1]: 0.43 | TGI % (tumor growth inhibition compared to control) [1]: 60% | Tumor growth inhibition (TGI) on day 32 [2]: 53% | Tumor-free animals on Day 125 [2]: 0 | Median time to event (Days to reach TV of 1500 mm^3) [2]: 29 days | Number of animals with reduced tumor growth or non-responder [2]: 10 | Number of animals with tumor regrowth [2]: 0

COc1cc(C(=O)O)ccc1NC(=O)[C@@H]1N[C@@H](CC(C)(C)C)[C@](C#N)(c2ccc(Cl)cc2F)[C@H]1c1cccc(Cl)c1F [RG7388, 4-{[(2R,3S,4R,5S)-4-(4-Chloro-2-fluoro-phenyl)-3-(3-chloro-2-fluoro-phenyl)-4-cyano-5-(2,2-dimethyl-propyl)-pyrrolidine-2-carbonyl]-amino}-3-methoxy-benzoic acid]
npTCR [1]: 0.48 | TGI % (tumor growth inhibition compared to control) [1]: 56% | Tumor growth inhibition (TGI) on day 32 [2]: 67% | Tumor-free animals on Day 125 [2]: 0 | Median time to event (Days to reach TV of 1500 mm^3) [2]: 30 days | Number of animals with reduced tumor growth or non-responder [2]: 9 | Number of animals with tumor regrowth [2]: 0

obinutuzumab: afucosylated glyco-engineered humanized B-Ly1 type II anti-CD20 IgG1 antibody, VH SEQ ID NO:7 (B-HH6), VL SEQ ID NO:20 (B-KV1)
npTCR [1]: 0.17 | TGI % (tumor growth inhibition compared to control) [1]: 90% | Tumor growth inhibition (TGI) on day 32 [2]: 47% | Tumor-free animals on Day 125 [2]: 2 | Median time to event (Days to reach TV of 1500 mm^3) [2]: 28 days | Number of animals with reduced tumor growth or non-responder [2]: 8 | Number of animals with tumor regrowth [2]: 0

Reference: US20160347852A1, “Combination therapy of an anti-CD20 antibody with a Bcl-2 inhibitor and a MDM2 inhibitor” (Hoffmann-La Roche Inc., priority 2015, published 2016)
